The subject of one experiment is P. falciparum. The experiment can be described thus: Growth inhibition against P. falciparum. Type of experiment: cell-based. Particulars: for IC50: Plasmodium falciparum.
In another experiment the target is T1, P. falciparum DXR (Plasmodium falciparum, UniProt Q8IKG4).
T1 sequence (Q8IKG4 73-488): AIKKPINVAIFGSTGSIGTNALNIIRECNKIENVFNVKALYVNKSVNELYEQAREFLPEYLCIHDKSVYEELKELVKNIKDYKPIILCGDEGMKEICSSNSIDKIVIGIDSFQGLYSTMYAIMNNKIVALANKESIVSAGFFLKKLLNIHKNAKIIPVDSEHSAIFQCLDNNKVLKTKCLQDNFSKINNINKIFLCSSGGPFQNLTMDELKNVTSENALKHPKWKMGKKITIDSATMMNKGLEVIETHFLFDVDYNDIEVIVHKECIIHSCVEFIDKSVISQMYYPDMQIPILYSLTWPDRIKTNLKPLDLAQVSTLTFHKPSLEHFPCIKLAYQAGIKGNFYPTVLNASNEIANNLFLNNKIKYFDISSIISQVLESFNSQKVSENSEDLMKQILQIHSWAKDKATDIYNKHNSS
The experiment is described as follows: Inhibition of P. falciparum DXR enzyme. Type of experiment: biochemical. Particulars: for Pf DXR (% Residue): percent remaining enzyme activity at 100 μM compound; for IC50: Table 2, phosphonic acid salts, read-out: Pf DXR IC50.

Experiment [1] deals with P. falciparum had1 mutant strain. Type of experiment: cell-based. Particulars: in words.
A further experiment has as its system Mtb. The experiment is described as follows: Mtb growth inhibition (MIC99) in 7H9 and GAST-Fe media. Type of experiment: cell-based, M. tuberculosis. The conditions noted are these: Mycobacterium tuberculosis. On the procedure:
Selected analogs were tested for the growth inhibition against P. falciparum and Mtb in both rich media (7H9) and minimal media (GAST-Fe) following reported procedures.

In another experiment the test system is HepG2 cells. The experiment can be described thus: HepG2 cell inhibition (cytotoxicity) assay. Type of experiment: cell-based. Particulars: Homo sapiens, HepG2; Table 6, cytotoxicity; read-out: HepG2 IC50. On the procedure: For cytotoxicity assays, HepG2 cells (ATCC HB-8065) were grown in DMEM supplemented with 4 mM L-glutamine (Gibco #11966-025) with either 4.5 g/L D-glucose or 1.8 g/L galactose as carbon source. Cells were trypsinized, resuspended in the respective medium (DMEM/glutamine/glucose or DMEM/glutamine/galactose) to 4×10^5 cells/mL and 50 μL/well transferred to flat-bottom white opaque tissue culture plates (Falcon #353296) containing 50 μL/well of the respective medium with test compound. Compound concentrations were two-fold dilutions ranging from 50 μM to 0.049 μM as well as the drug-free DMSO-only control. All concentrations were tested in duplicate for each carbon source. After 24 h incubation at 5% CO2, 37° C., 10 μL/well of Celltiter-Glo reagent (Promega #G9241) was added and luminescence recorded after 20 min incubation in the dark.

[2] abbreviates: Table 3, diethyl phosphonate analogs.
[3] abbreviates: Table 4, growth inhibition, read-out: Pf IC50.
[4] abbreviates: Table 3, diethyl phosphonate analogs, read-out: P.f. IC50.
Setting [5] is: minimal media (GAST-Fe), read-out: Mtb MIC99 Gast/Fe.
[6] abbreviates: rich media (7H9), read-out: Mtb MIC99 7H9.
[7] abbreviates: Table 6, growth inhibition, read-out: P.f. IC50.

The values that follow come from patent US11098072B2, “Alkenyl and beta-substituted phosphonates as antimicrobial agents” (The George Washington University, priority 2017, dated 2021).

The structures appear in SMILES notation. Converted amounts (≈) assume the structure as drawn. Like-named read-outs stand apart in the source and are kept apart here.

In the case of `CCOP(=O)(/C=C/CN(O)C=O)OCC` [Compound 11a, Diethyl [(1E)-3-(N-hydroxyformamido)prop-1-en-1-yl]phosphonate], the “P.f. IC50” value in the experiment on P. falciparum (setting [2]) was over 100 µg/mL.

Consider `CCOP(=O)(/C=C/CN(O)C(=O)C(F)(F)F)OCC` [Compound 11b, Diethyl [(1E)-3-(2,2,2-trifluoro-N-hydroxyacetamido)prop-1-en-1-yl]phosphonate], for which the “P.f. IC50” value in the experiment on P. falciparum (setting [2]) is over 100 µg/mL.

Take `CCOP(=O)(/C=C/CN(O)C(=O)OC)OCC` [Compound 11c, Methyl N-[(2E)-3-(diethoxyphosphoryl)prop-2-en-1-yl]-N-hydroxycarbamate]: the “P.f. IC50” value in the experiment with P. falciparum (setting [2]) was over 100 µg/mL.

As to `O=C(N(O)C/C=C/P(=O)([O-])O)C(F)(F)F.[Na+]` [Compound 12b, Sodium hydrogen [(1E)-3-(2,2,2-trifluoro-N-hydroxyacetamido)prop-1-en-1-yl]phosphonate], the “Pf DXR (% Residue)” value on P. falciparum DXR is “(36.96) %”. Further, the IC50 in the experiment with P. falciparum (setting [3]) amounted to 113 µM.

Turning to `COC(=O)N(O)C/C=C/P(=O)(O)O` [Compound 12c, Diammonium [(1E)-3-[hydroxy(methoxycarbonyl)amino]prop-1-en-1-yl]phosphonate], the IC50 stood at 14.5 µM on P. falciparum DXR and 28.6 µM with P. falciparum (read-out: Pf IC50).

For the compound `CCOP(=O)(/C=C/CN(OC(C)c1ccccc1)C(C)=O)OCC` (stereo not shown) [Compound 15d, Diethyl [(1E)-3-[N-(1-phenylethoxy)acetamido]prop-1-en-1-yl]phosphonate], the IC50 with P. falciparum (setting [4]) is 23.5 µg/mL.

For the compound `CCOP(=O)(/C=C/CN(OCc1ccc(C(C)C)cc1)C(C)=O)OCC` [Compound 15e, Diethyl [(1E)-3-(N-{[4-(propan-2-yl)phenyl]methoxy}acetamido)prop-1-en-1-yl]phosphonate], the IC50 in the experiment with P. falciparum (setting [4]) turned out to be 21.1 µg/mL.

Take `CCOP(=O)(/C=C/CN(OCc1ccc2ccccc2c1)C(C)=O)OCC` [Compound 15f, Diethyl [(1E)-3-{N-[(naphthalen-2-yl)methoxy]acetamido}prop-1-en-1-yl]phosphonate]: the IC50 in the experiment with P. falciparum (setting [4]) came out at 29.6 µg/mL.

For the compound `CCOP(=O)(/C=C/CN(OCc1ccc(-c2ccccc2)cc1)C(C)=O)OCC` [Compound 15g, Diethyl [(1E)-3-{N-[(4-phenylphenyl)methoxy]acetamido}prop-1-en-1-yl]phosphonate], the IC50 in the experiment with P. falciparum (setting [4]) was determined as 13.7 µg/mL.

In the case of `CC(=O)N(C/C=C/P(=O)(O)O)OC(C)c1ccccc1` (stereo not shown) [Compound 16d, Sodium hydrogen [(1E)-3-[N-(1-phenylethoxy)acetamido]prop-1-en-1-yl]phosphonate], the concentration for half-maximal inhibition (IC50) was 2.54 µM on P. falciparum DXR and 1.2 µM in the experiment with P. falciparum (setting [3]).

Consider `CC(=O)N(C/C=C/P(=O)([O-])O)OCc1ccc(C(C)C)cc1.[Na+]` [Compound 16e, Sodium hydrogen [(1E)-3-(N-{[4-(propan-2-yl)phenyl]methoxy}acetamido)prop-1-en-1-yl]phosphonate], for which the half-maximal inhibitory concentration (IC50) worked out at 2.11 µM at P. falciparum DXR and 1.1 µM in the experiment with P. falciparum (setting [3]). For the same compound, the “resistance of had1 parasites compared with wild-type” value in experiment [1] was “more resistant”.

Regarding `CC(=O)N(C/C=C/P(=O)([O-])O)OCc1ccc2ccccc2c1.[Na+]` [Compound 16f, Sodium hydrogen [(1E)-3-{N-[(naphthalen-2-yl)methoxy]acetamido}prop-1-en-1-yl]phosphonate], on P. falciparum DXR, the “Pf DXR (% Residue)” value was “(25) %”. For the same compound, the IC50 in the experiment with P. falciparum (setting [3]) was 26 µM.

For `CC(=O)N(C/C=C/P(=O)(O)O)OCc1ccc(-c2ccccc2)cc1` [Compound 16g, Sodium hydrogen [(1E)-3-{N-[(4-phenylphenyl)methoxy]acetamido}prop-1-en-1-yl]phosphonate], the IC50 at P. falciparum DXR stood at 4.53 µM; in the experiment on P. falciparum (setting [3]), 2.3 µM.

With `CC(C)(C)C(=O)OCOP(=O)(/C=C/CN(O)C(=O)C(F)(F)F)OCOC(=O)C(C)(C)C` [Compound 18b, [({[(2,2-dimethylpropanoyl)oxy]methoxy}[(1E)-3-(2,2,2-trifluoro-N-hydroxyacetamido)prop-1-en-1-yl]phosphoryl)oxy]methyl 2,2-dimethylpropanoate], the IC50 in the experiment on P. falciparum (setting [3]) is 14.2 µM.

Turning to `COC(=O)N(O)C/C=C/P(=O)(OCOC(=O)C(C)(C)C)OCOC(=O)C(C)(C)C` [Compound 18c, [({[(2,2-dimethylpropanoyl)oxy]methoxy}[(1E)-3-[hydroxy(methoxycarbonyl)amino]prop-1-en-1-yl]phosphoryl)oxy]methyl 2,2-dimethylpropanoate], the half-inhibitory concentration (IC50) with P. falciparum (setting [3]) is 23.7 µM.

With `CC(=O)N(C/C=C/P(=O)(OCOC(=O)C(C)(C)C)OCOC(=O)C(C)(C)C)OCc1ccc(C(C)C)cc1` [Compound 19e, [({[(2,2-dimethylpropanoyl)oxy]methoxy}[(1E)-3-(N-{[4-(propan-2-yl)phenyl]methoxy}acetamido)prop-1-en-1-yl]phosphoryl)oxy]methyl 2,2-dimethylpropanoate], the IC50 with P. falciparum (setting [3]) was 55.1 µM.

For `CC(=O)N(C/C=C/P(=O)(OCOC(=O)C(C)(C)C)OCOC(=O)C(C)(C)C)OCc1ccc2ccccc2c1` [Compound 19f, [({[(2,2-dimethylpropanoyl)oxy]methoxy}[(1E)-3-{N-[(naphthalen-2-yl)methoxy]acetamido}prop-1-en-1-yl]phosphoryl)oxy]methyl 2,2-dimethylpropanoate], in the experiment on P. falciparum (setting [3]), the IC50 worked out at 49.9 µM.

As for `CC(=O)N(C/C=C/P(=O)(OCOC(=O)C(C)(C)C)OCOC(=O)C(C)(C)C)OCc1ccc(-c2ccccc2)cc1` [Compound 19g, [({[(2,2-dimethylpropanoyl)oxy]methoxy}[(1E)-3-{N-[(4-phenylphenyl)methoxy]acetamido}prop-1-en-1-yl]phosphoryl)oxy]methyl 2,2-dimethylpropanoate], the IC50 with P. falciparum (setting [3]) came to 43.2 µM.

Consider `CCOP(=O)(/C=C/CN(O)C(=O)c1ccccc1)OCC` [Compound 31a, Diethyl [(1E)-3-(N-hydroxy-1-phenylformamido)prop-1-en-1-yl]phosphonate], for which the MIC99 with Mtb (setting [5]) and in the experiment on Mtb (setting [6]) was over 100 µg/mL in each case. For the same compound, the IC50 in the experiment on P. falciparum (setting [7]) is over 100 µg/mL.

Consider `CCOP(=O)(/C=C/CN(O)C(=O)Cc1ccccc1)OCC` [Compound 31b, Diethyl [(1E)-3-(N-hydroxy-2-phenylacetamido)prop-1-en-1-yl]phosphonate], for which, in the experiment with Mtb (setting [6]), the MIC99 was over 100 µg/mL. The IC50 in the experiment on P. falciparum (setting [7]) turned out to be 110 µg/mL.

On to `CCOP(=O)(/C=C/CN(O)C(=O)CCc1ccccc1)OCC` [Compound 31c, Diethyl [(1E)-3-(N-hydroxy-3-phenylpropanamido)prop-1-en-1-yl]phosphonate], for which the MIC99 in the experiment with Mtb (setting [5]) and in the experiment on Mtb (setting [6]) was over 100 µg/mL each time. Besides, the IC50 in the experiment on P. falciparum (setting [7]) is over 100 µg/mL.

Consider `CCOP(=O)(/C=C/CN(O)C(=O)CCCc1ccccc1)OCC` [Compound 31d, Diethyl [(1E)-3-(N-hydroxy-4-phenylbutanamido)prop-1-en-1-yl]phosphonate], for which the MIC99 in the experiment with Mtb (setting [5]) and in the experiment with Mtb (setting [6]) was over 100 µg/mL each time. Also, the IC50 in the experiment with P. falciparum (setting [7]) was 11.1 µg/mL.

As for `CC(C)(C)C(=O)OCOP(=O)(/C=C/CN(O)C(=O)c1ccccc1)OCOC(=O)C(C)(C)C` [Compound 33a, [({[(2,2-dimethylpropanoyl)oxy]methoxy}[(1E)-3-(N-hydroxy-1-phenylformamido)prop-1-en-1-yl]phosphoryl)oxy]methyl 2,2-dimethylpropanoate], the IC50 in the experiment with HepG2 cells was over 50 µM; with P. falciparum (setting [7]) it was 0.097 µg/mL. Also, the MIC99 in the experiment with Mtb (setting [6]) was 50 µg/mL (≈ 103 µM). The “resistance of had1 parasites compared with wild-type” value in experiment [1] is “more resistant”.

In the case of `CC(C)(C)C(=O)OCOP(=O)(/C=C/CN(O)C(=O)Cc1ccccc1)OCOC(=O)C(C)(C)C` [Compound 33b, [({[(2,2-dimethylpropanoyl)oxy]methoxy}[(1E)-3-(N-hydroxy-2-phenylacetamido)prop-1-en-1-yl]phosphoryl)oxy]methyl 2,2-dimethylpropanoate], the MIC99 in the experiment with Mtb (setting [5]) was 74 µg/mL (≈ 148 µM); in the experiment with Mtb (setting [6]), 100 µg/mL (≈ 200 µM). The IC50 with P. falciparum (setting [7]) worked out at 0.152 µg/mL.

On to `CC(C)(C)C(=O)OCOP(=O)(/C=C/CN(O)C(=O)CCCc1ccccc1)OCOC(=O)C(C)(C)C` [Compound 33d, [({[(2,2-dimethylpropanoyl)oxy]methoxy}[(1E)-3-(N-hydroxy-4-phenylbutanamido)prop-1-en-1-yl]phosphoryl)oxy]methyl 2,2-dimethylpropanoate], for which the MIC99 in the experiment with Mtb (setting [5]) was 37 µg/mL (≈ 70.1 µM); with Mtb (setting [6]), over 100 µg/mL. Further, the IC50 in the experiment with P. falciparum (setting [7]) was 2.4 µg/mL.

The IC50 is the concentration that gives 50% inhibition.
